Measured values as given in patent US12606541B2, “PPARg modulators and methods of use” (Eisai R&D Management Co., Ltd., priority 2020, dated 2026).

molecular target: T1, His6-TEV-PPARγ-(234-505) (Homo sapiens, UniProt P37231); test: TR-FRET Assay to Measure Co-R Peptide Recruitment to PPARγ; format: biochemical; conditions: Co-R peptide recruitment to PPARγ; read-out: TR-FRET AC50
T1 construct: The His6-TEV-PPARγ-(234-505) protein for assay was expressed and purified; TEV cleavage site (N); made in house
T1 sequence (P37231 234-505): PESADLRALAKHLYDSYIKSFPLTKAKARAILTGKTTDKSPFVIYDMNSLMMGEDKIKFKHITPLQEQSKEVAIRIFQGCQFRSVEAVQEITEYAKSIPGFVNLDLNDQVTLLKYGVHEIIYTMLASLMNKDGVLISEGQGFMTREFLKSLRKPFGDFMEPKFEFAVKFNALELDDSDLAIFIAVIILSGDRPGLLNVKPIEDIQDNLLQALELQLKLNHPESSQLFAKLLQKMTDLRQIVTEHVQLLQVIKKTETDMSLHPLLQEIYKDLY
Procedure, shortened: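 His-tagged PPARγ (or controls) was preincubated with compound for 20 minutes at room temperature, then 5 nM anti-His terbium antibody and 200 nM FITC-labeled SMRT-ID2 corepressor peptide (final) were added for a further hour. TR-FRET signal was normalized to percent response using 500 nM T0070907 and DMSO controls.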

AC50, > 1 µM:
COc1cc(-c2cc(C(=O)N3CCC(C(=O)NCc4ccc(C#N)nc4)CC3)n[nH]2)c(Cl)cn1 [1-[5-(5-chloro-2-methoxypyridin-4-yl)-1H-pyrazole-3-carbonyl]-N-[(6-cyanopyridin-3-yl)methyl]piperidine-4-carboxamide], COc1ccc(CNC(=O)C2CCN(C(=O)c3cc(-c4cc(OC)ncc4Cl)[nH]n3)CC2)cn1 [1-[5-(5-chloro-2-methoxypyridin-4-yl)-1H-pyrazole-3-carbonyl]-N-[(6-methoxypyridin-3-yl)methyl]piperidine-4-carboxamide], COc1cc(-c2cc(C(=O)N3CCC(C(=O)NCc4cccc(C)n4)CC3)n[nH]2)c(Cl)cn1 [1-[5-(5-chloro-2-methoxypyridin-4-yl)-1H-pyrazole-3-carbonyl]-N-[(6-methylpyridin-2-yl)methyl]piperidine-4-carboxamide], COc1cc(-c2cc(C(=O)N3CCC(C(=O)NCc4ccc(C)nc4)CC3)n[nH]2)c(Cl)cn1 [1-[5-(5-chloro-2-methoxypyridin-4-yl)-1H-pyrazole-3-carbonyl]-N-[(6-methylpyridin-3-yl)methyl]piperidine-4-carboxamide], COc1cc(-c2cc(C(=O)N3CCC(C(=O)NCc4cccc(=O)[nH]4)CC3)n[nH]2)c(Cl)cn1 [1-[5-(5-chloro-2-methoxypyridin-4-yl)-1H-pyrazole-3-carbonyl]-N-[(6-oxo-1,6-dihydropyridin-2-yl)methyl]piperidine-4-carboxamide], COc1cc(-c2cc(C(=O)N3CCC(C(=O)NCc4ccc(=O)[nH]c4)CC3)n[nH]2)c(Cl)cn1 [1-[5-(5-chloro-2-methoxypyridin-4-yl)-1H-pyrazole-3-carbonyl]-N-[(6-oxo-1,6-dihydropyridin-3-yl)methyl]piperidine-4-carboxamide], COc1cc(-c2cc(C(=O)N3CCC(C(=O)NCc4nccc(=O)[nH]4)CC3)n[nH]2)c(Cl)cn1 [1-[5-(5-chloro-2-methoxypyridin-4-yl)-1H-pyrazole-3-carbonyl]-N-[(6-oxo-1,6-dihydropyrimidin-2-yl)methyl]piperidine-4-carboxamide], COc1cc(-c2cc(C(=O)N3CCC(C(=O)N[C@@H]4CCCc5cccnc54)CC3)n[nH]2)c(Cl)cn1 [1-[5-(5-chloro-2-methoxypyridin-4-yl)-1H-pyrazole-3-carbonyl]-N-[(8R)-5,6,7,8-tetrahydroquinolin-8-yl]piperidine-4-carboxamide], COc1cc(-c2cc(C(=O)N3CCC(C(=O)N[C@H]4CCCc5cccnc54)CC3)n[nH]2)c(Cl)cn1 [1-[5-(5-chloro-2-methoxypyridin-4-yl)-1H-pyrazole-3-carbonyl]-N-[(8S)-5,6,7,8-tetrahydroquinolin-8-yl]piperidine-4-carboxamide], COc1cc(-c2cc(C(=O)N3CCC(C(=O)NCC4CCCCO4)CC3)n[nH]2)c(Cl)cn1 (stereo not shown) [1-[5-(5-chloro-2-methoxypyridin-4-yl)-1H-pyrazole-3-carbonyl]-N-[(oxan-2-yl)methyl]piperidine-4-carboxamide], COc1cc(-c2cc(C(=O)N3CCC(C(=O)NCC4CCCOC4)CC3)n[nH]2)c(Cl)cn1 (stereo not shown) [1-[5-(5-chloro-2-methoxypyridin-4-yl)-1H-pyrazole-3-carbonyl]-N-[(oxan-3-yl)methyl]piperidine-4-carboxamide], COc1cc(-c2cc(C(=O)N3CCC(C(=O)NCC4CCCO4)CC3)n[nH]2)c(Cl)cn1 (stereo not shown) [1-[5-(5-chloro-2-methoxypyridin-4-yl)-1H-pyrazole-3-carbonyl]-N-[(oxolan-2-yl)methyl]piperidine-4-carboxamide], COc1cc(-c2cc(C(=O)N3CCC(C(=O)NCc4cnccn4)CC3)n[nH]2)c(Cl)cn1 [1-[5-(5-chloro-2-methoxypyridin-4-yl)-1H-pyrazole-3-carbonyl]-N-[(pyrazin-2-yl)methyl]piperidine-4-carboxamide]
